In PubChem BioAssay AID1259407 (Chemical Carcinogenesis Research Information System (CCRIS), 2018) one finds mutagenic call data, which are given here for three compounds.

Structures are written as SMILES. The source made the active and inactive calls. The rule behind the calls is not given here.

In the data set the test system is CCRIS mutagenicity, Ames/micronucleus/aberration tests. Kind of data set: CCRIS mutagenicity studies.
Where [1] appears, read: Test System: AMES SALMONELLA TYPHIMURIUM, Strain/Indicator: TA98, Metabolic Activation: NONE, Method: PREINCUBATION
Setting [2] is: Test System: AMES SALMONELLA TYPHIMURIUM, Strain/Indicator: TA100, Metabolic Activation: NONE, Method: PREINCUBATION
Where [3] appears, read: Test System: AMES SALMONELLA TYPHIMURIUM, Strain/Indicator: TA1535, Metabolic Activation: NONE, Method: PREINCUBATION
[4] abbreviates: Test System: AMES SALMONELLA TYPHIMURIUM, Strain/Indicator: TA1537, Metabolic Activation: NONE, Method: PREINCUBATION
The mark [5] stands for this setting: Test System: AMES SALMONELLA TYPHIMURIUM, Strain/Indicator: TA98, Metabolic Activation: NONE, Method: STANDARD PLATE.
[6] abbreviates: Test System: AMES SALMONELLA TYPHIMURIUM, Strain/Indicator: TA98, Metabolic Activation: RAT, LIVER, S-9, AROCLOR 1254, Method: STANDARD PLATE.
Where [7] appears, read: Test System: AMES SALMONELLA TYPHIMURIUM, Strain/Indicator: TA100, Metabolic Activation: NONE, Method: STANDARD PLATE.
Setting [8] is: Test System: AMES SALMONELLA TYPHIMURIUM, Strain/Indicator: TA100, Metabolic Activation: RAT, LIVER, S-9, AROCLOR 1254, Method: STANDARD PLATE.
Where [9] appears, read: Test System: AMES SALMONELLA TYPHIMURIUM, Strain/Indicator: TA1535, Metabolic Activation: NONE, Method: STANDARD PLATE.
The mark [10] stands for this setting: Test System: AMES SALMONELLA TYPHIMURIUM, Strain/Indicator: TA1535, Metabolic Activation: RAT, LIVER, S-9, AROCLOR 1254, Method: STANDARD PLATE.
The mark [11] stands for this setting: Test System: AMES SALMONELLA TYPHIMURIUM, Strain/Indicator: TA1537, Metabolic Activation: NONE, Method: STANDARD PLATE.
[12] abbreviates: Test System: AMES SALMONELLA TYPHIMURIUM, Strain/Indicator: TA1537, Metabolic Activation: RAT, LIVER, S-9, AROCLOR 1254, Method: STANDARD PLATE.

For `[Cl][Ti]([Cl])[Cl]`, the mutagenic call is, setting by setting: under setting [1], “inactive; negative”; (Test System: AMES SALMONELLA TYPHIMURIUM, Strain/Indicator: TA98, Metabolic Activation: RAT LIVER S-9, PHENOBARBITAL AND BETA-NAPHTHOFLAVONE, Method: PREINCUBATION) “inactive; negative”; under setting [2], “inactive; negative”; (Test System: AMES SALMONELLA TYPHIMURIUM, Strain/Indicator: TA100, Metabolic Activation: RAT LIVER S-9, PHENOBARBITAL AND BETA-NAPHTHOFLAVONE, Method: PREINCUBATION) “active; positive”; under setting [3], “inactive; negative”; (Test System: AMES SALMONELLA TYPHIMURIUM, Strain/Indicator: TA1535, Metabolic Activation: RAT LIVER S-9, PHENOBARBITAL AND BETA-NAPHTHOFLAVONE, Method: PREINCUBATION) “inactive; negative”. Besides, the mutagenic call under setting [4] was “inactive; negative”; the mutagenic call (Test System: AMES SALMONELLA TYPHIMURIUM, Strain/Indicator: TA1537, Metabolic Activation: RAT LIVER S-9, PHENOBARBITAL AND BETA-NAPHTHOFLAVONE, Method: PREINCUBATION) is “inactive; negative”; the mutagenic call (Test System: AMES SALMONELLA TYPHIMURIUM, Strain/Indicator: TA1538, Metabolic Activation: NONE, Method: PREINCUBATION) is “inactive; negative”; the mutagenic call (Test System: AMES SALMONELLA TYPHIMURIUM, Strain/Indicator: TA1538, Metabolic Activation: RAT LIVER S-9, PHENOBARBITAL AND BETA-NAPHTHOFLAVONE, Method: PREINCUBATION) is “inactive; negative”; the mutagenic call (Test System: E.COLI, Strain/Indicator: WP2UVRA, Metabolic Activation: NONE, Method: PREINCUBATION) was “inactive; negative”; the mutagenic call (Test System: E.COLI, Strain/Indicator: WP2UVRA, Metabolic Activation: RAT LIVER S-9, PHENOBARBITAL AND BETA-NAPHTHOFLAVONE, Method: PREINCUBATION) was “inactive; negative”.

On to `CCCCCCCCCCCCCCCC(=O)OC/C=C(C)/C=C/C=C(C)/C=C/C1=C(C)CCCC1(C)C`, for which the mutagenic call was “active; positive (structural changes; abnormal metaphase)” (End Point: IN VIVO CHROMOSOMAL ABERRATIONS, Test System: BONE MARROW CELLS, Species: RAT, Strain/Sex: WISTAR/MALE, FEMALE, Route: ORAL (GAVAGE)); “active; positive (structural changes)” (End Point: IN VIVO CHROMOSOMAL ABERRATIONS, Test System: BONE MARROW, Species: RAT, Strain/Sex: WISTAR/MALE, FEMALE, Route: GAVAGE); “inactive; negative” (End Point: IN VIVO MICRONUCLEUS, Test System: BONE MARROW POLYCHROMATIC ERYTHROCYTES, Species: MOUSE, Strain/Sex: DDY/MALE, Route: IP); “inactive; negative” under setting [5]; “inactive; negative” under setting [6]; “inactive; negative” under setting [7]. The mutagenic call under setting [8] was “inactive; negative”; the mutagenic call under setting [9] is “inactive; negative”; the mutagenic call under setting [10] is “inactive; negative”; the mutagenic call under setting [11] is “inactive; negative”; the mutagenic call under setting [12] is “inactive; negative”; the mutagenic call (Test System: AMES SALMONELLA TYPHIMURIUM, Strain/Indicator: TA1538, Metabolic Activation: NONE, Method: STANDARD PLATE) was “inactive; negative”. The mutagenic call is “inactive; negative” (Test System: AMES SALMONELLA TYPHIMURIUM, Strain/Indicator: TA1538, Metabolic Activation: RAT, LIVER, S-9, AROCLOR 1254, Method: STANDARD PLATE); “inactive; negative” (Test System: E. COLI, Strain/Indicator: WP2, Metabolic Activation: NONE, Method: STANDARD PLATE); “inactive; negative” (Test System: E. COLI, Strain/Indicator: WP2, Metabolic Activation: RAT, LIVER, S-9, AROCLOR 1254, Method: STANDARD PLATE).

As to `CN1C[C@H](C(=O)N[C@]2(C)O[C@@]3(O)[C@@H]4CCCN4C(=O)[C@H](Cc4ccccc4)N3C2=O)C=C2c3cccc4[nH]cc(c34)C[C@H]21`, the mutagenic call runs as follows: (Test System: AMES SALMONELLA TYPHIMURIUM, Strain/Indicator: TA98, Metabolic Activation: HAMSTER, LIVER, S-9, AROCLOR 1254 (10%), Method: PREINCUBATION) “inactive; negative”; (Test System: AMES SALMONELLA TYPHIMURIUM, Strain/Indicator: TA98, Metabolic Activation: HAMSTER, LIVER, S-9, AROCLOR 1254, Method: STANDARD PLATE) “inactive; negative”; under setting [1], “inactive; negative”; under setting [5], “inactive; negative”; (Test System: AMES SALMONELLA TYPHIMURIUM, Strain/Indicator: TA98, Metabolic Activation: RAT, LIVER, S-9, AROCLOR 1254 (10%), Method: PREINCUBATION) “inactive; negative”; under setting [6], “inactive; negative”. Moreover, the mutagenic call is “inactive; negative” (Test System: AMES SALMONELLA TYPHIMURIUM, Strain/Indicator: TA100, Metabolic Activation: HAMSTER, LIVER, S-9, AROCLOR 1254 (10%), Method: PREINCUBATION); “inactive; negative” (Test System: AMES SALMONELLA TYPHIMURIUM, Strain/Indicator: TA100, Metabolic Activation: HAMSTER, LIVER, S-9, AROCLOR 1254, Method: STANDARD PLATE); “inactive; negative” under setting [2]; “inactive; negative” under setting [7]; “inactive; negative” (Test System: AMES SALMONELLA TYPHIMURIUM, Strain/Indicator: TA100, Metabolic Activation: RAT, LIVER, S-9, AROCLOR 1254 (10%), Method: PREINCUBATION); “inactive; negative” under setting [8]. The mutagenic call is “inactive; negative” (Test System: AMES SALMONELLA TYPHIMURIUM, Strain/Indicator: TA1535, Metabolic Activation: HAMSTER, LIVER, S-9, AROCLOR 1254 (10%), Method: PREINCUBATION); “inactive; negative” (Test System: AMES SALMONELLA TYPHIMURIUM, Strain/Indicator: TA1535, Metabolic Activation: HAMSTER, LIVER, S-9, AROCLOR 1254, Method: STANDARD PLATE); “inactive; negative” under setting [3]; “inactive; negative” under setting [9]; “inactive; negative” (Test System: AMES SALMONELLA TYPHIMURIUM, Strain/Indicator: TA1535, Metabolic Activation: RAT, LIVER, S-9, AROCLOR 1254 (10%), Method: PREINCUBATION); “inactive; negative” under setting [10]. The mutagenic call is “inactive; negative” (Test System: AMES SALMONELLA TYPHIMURIUM, Strain/Indicator: TA1537, Metabolic Activation: HAMSTER, LIVER, S-9, AROCLOR 1254 (10%), Method: PREINCUBATION); “inactive; negative” (Test System: AMES SALMONELLA TYPHIMURIUM, Strain/Indicator: TA1537, Metabolic Activation: HAMSTER, LIVER, S-9, AROCLOR 1254, Method: STANDARD PLATE); “inactive; negative” under setting [4]; “inactive; negative” under setting [11]; “inactive; negative” (Test System: AMES SALMONELLA TYPHIMURIUM, Strain/Indicator: TA1537, Metabolic Activation: RAT, LIVER, S-9, AROCLOR 1254 (10%), Method: PREINCUBATION); “inactive; negative” under setting [12]. For the same compound, the mutagenic call (Test System: MOUSE LYMPHOMA, Strain/Indicator: L5178Y (TK+/TK-), Metabolic Activation: NONE, Method: SUSPENSION/PLATE) was “inactive; negative”; the mutagenic call (Test System: MOUSE LYMPHOMA, Strain/Indicator: L5178Y (TK+/TK-), Metabolic Activation: RAT, LIVER, S-9, AROCLOR 1254, Method: SUSPENSION/PLATE) is “inactive; negative”; the mutagenic call (Test System: Mouse lymphoma, Strain/Indicator: L5178Y (tk+/tk-), Metabolic Activation: None, Method: Suspension/plate) was “inactive; negative”; the mutagenic call (Test System: Mouse lymphoma, Strain/Indicator: L5178Y (tk+/tk-), Metabolic Activation: Rat, Liver, S-9, Aroclor 1254, Method: Suspension/plate) is “inactive; negative”.
